# In US4355040A, “Hypotensive imidazole-5-acetic acid derivatives” (Takeda Chemical Industries, Ltd., priority 1979, dated 1982):
# Where a name gives a salt, the structure may show the parent alone. Read-outs that look alike come from different tables or passages of the source.
# What was measured:
# [1] = tested on: angiotensin II (aortic blood vessel of rabbits); experiment: Antagonistic effect on angiotensin II (A II)-induced tension, aortic blood vessel of rabbits; format: cell-based; conditions: Oryctolagus cuniculus, 0.25 h; for inhibition at 0.1 µM: 10^-7 M drug substance
# Excerpt: Antagonistic effect of the compound (I) of the present invention on angiotensin II (hereinafter referred to briefly as "A II") (with aortic blood vessel of rabbits)
# The blood-vessel preparation and reaction were done in accordance with the method as described in "European Journal of Pharmacology", 18, 316 (1972). […] [formula] where; T1 =Change in isometric tension of the blood vessel brought about by A II without a test drug substance (g)
# [2] = tested on: angiotensin II-induced elevation of blood pressure; experiment: Inhibitory activity against angiotensin II-induced elevation of blood pressure in rats; format: in vivo, Male SD rats; conditions: Rattus norvegicus, iv; for inhibition in vivo at 0.03 mg/kg: 0.03 mg/kg intravenously; for inhibition in vivo at 0.03 mg/kg / inhibition in vivo at 3 mg/kg / inhibition in vivo at 0.5 mg/kg / inhibition in vivo at 1 mg/kg: A II 20 ng/kg/min; for inhibition in vivo at 3 mg/kg: 3.0 mg/kg intravenously; for inhibition in vivo at 0.5 mg/kg: 0.5 mg/kg intravenously; for inhibition in vivo at 1 mg/kg: 1.0 mg/kg intravenously
# [3] = 10^-6 M drug substance, A II 4×10^-9 M, 15 minutes, read-out: Inhibition
# [4] = 10^-5 M drug substance, A II 4×10^-9 M, 15 minutes, read-out: Inhibition
# [5] = 10 min, 10 min, read-out: Inhibition (%), after 10 min.
# [6] = 0.5 h, 30 min, read-out: Inhibition (%), after 30 min.
# [7] = 1.5 h, 90 min, read-out: Inhibition (%), after 90 min.
# [8] = 10 min, read-out: Inhibition (%), after 10 min.
# [9] = 0.5 h, read-out: Inhibition (%), after 30 min.
# [10] = 1.5 h, read-out: Inhibition (%), after 90 min.
smiles,measurement,setting,value
CCOc1ccc(Cn2c(-c3ccccc3)nc(Cl)c2CC(=O)O)cc1C,inhibition at 1 µM,[1]; [3],81%
O=C(O)Cc1c(Cl)nc(-c2ccc(O)c(O)c2)n1Cc1ccccc1,inhibition at 1 µM,[1]; [3],34%
COc1ccc(-c2nc(Cl)c(CC(=O)O)n2Cc2ccccc2)cc1C,inhibition at 1 µM,[1]; [3],32%
O=C(O)Cc1c(Cl)nc(-c2ccccc2O)n1Cc1ccccc1,inhibition at 10 µM,[1]; [4],55%
Cc1ccccc1Cn1c(-c2ccccc2)nc(Cl)c1CC(=O)O,inhibition at 10 µM,[1]; [4],58%
CCCCCc1nc(Cl)c(CC(=O)O)n1Cc1ccccc1 [n-C 5 H11 / H / H / H],inhibition at 1 µM,[1]; [3],65%
O=C(O)Cc1c(Cl)nc(-c2ccccc2)n1Cc1cc([N+](=O)[O-])ccc1Cl [1-(2-chloro-5-nitrobenzyl)-4-chloro-2-phenylimidazole-5-acetic acid],inhibition at 1 µM,[1]; [3],34%
COc1ccc(Cn2c(-c3ccccc3)nc(Cl)c2CC(=O)O)cc1OC,inhibition at 1 µM,[1]; [3],38%
CCCCCCc1nc(Cl)c(CC(=O)O)n1Cc1ccc(OCCCC)cc1 [n-C6 H13 / 4-n-C4 H9 O / H / H],inhibition at 1 µM,[1]; [3],100%
CCCCOc1ccc(Cn2c(-c3ccccc3)nc(Cl)c2CC(=O)O)cc1 [drawing 136],inhibition in vivo at 0.03 mg/kg,[2]; [5],17%
same,inhibition in vivo at 3 mg/kg,[2]; [5],20%
same,inhibition in vivo at 0.03 mg/kg,[2]; [6],46.5%
same,inhibition in vivo at 3 mg/kg,[2]; [6],40%
same,inhibition in vivo at 0.03 mg/kg,[2]; [7],40%
same,inhibition in vivo at 3 mg/kg,[2]; [7],0%
CCCCOc1ccc(Cn2c(-c3ccccc3)nc(Cl)c2CC(=O)O)cc1 [drawing 121],inhibition at 1 µM,[1]; [3],56%
COc1ccc(Cn2c(-c3ccccc3)nc(Cl)c2CC(=O)O)cc1C [drawing 137],inhibition in vivo at 0.5 mg/kg,[2]; [5],33 ± 15%
same,inhibition in vivo at 0.5 mg/kg,[2]; [6],60 ± 18%
same,inhibition in vivo at 0.5 mg/kg,[2]; [7],62 ± 7%
Cc1ccc(Cn2c(-c3ccccc3)nc(Cl)c2CC(=O)O)cc1 [4-chloro-1-(4-methylbenzyl)-2-phenylimidazole-5-acetic acid],inhibition at 10 µM,[1]; [4],80%
CCCCCCc1nc(Cl)c(CC(=O)O)n1Cc1ccc(OC)c(C)c1 [n-C6 H13 / 3-CH3 / 4-CH3 O / H],inhibition at 1 µM,[1]; [3],100%
COc1cccc(-c2nc(Cl)c(CC(=O)O)n2Cc2ccccc2Cl)c1,inhibition at 1 µM,[1]; [3],23%
O=C(O)Cc1c(Cl)nc(-c2ccccc2)n1Cc1ccc(Cl)cc1 [1-(4-chlorobenzyl)-4-chloro-2-phenylimidazole-5-acetic acid],inhibition at 10 µM,[1]; [4],25%
O=C(O)Cc1c(Cl)nc(-c2ccccc2)n1Cc1ccccc1F [4-chloro-1-(2-fluorobenzyl)-2-phenylimidazole-5-acetic acid],inhibition at 1 µM,[1]; [3],23%
CCCc1nc(Cl)c(CC(=O)O)n1Cc1ccccc1 [n-C3 H7 / H / H / H],inhibition at 1 µM,[1]; [3],22%
CCCCc1nc(Cl)c(CC(=O)O)n1Cc1ccccc1[N+](=O)[O-] [n-C4 H9 / 2-NO2 / H / H],inhibition at 0.01 µM,"[1]; 10^-8 M drug substance, A II 4×10^-9 M, 15 minutes",30%
CN(C)c1c([N+](=O)[O-])cc(-c2nc(Cl)c(CC(=O)O)n2Cc2ccccc2)cc1[N+](=O)[O-],inhibition at 10 µM,[1],86%
CCCCCCc1nc(Cl)c(CC(=O)O)n1Cc1ccccc1Cl [n-C6 H13 / 2-Cl / H / H],inhibition at 0.1 µM,"[1]; A II 4×10^-9 M, 15 minutes",84%
O=C(O)Cc1c(Cl)nc(-c2ccccc2[N+](=O)[O-])n1Cc1ccccc1,inhibition at 10 µM,[1]; [4],35%
"CCCCc1nc(Cl)c(CC(=O)O)n1Cc1ccccc1OCC [n-C4 H9 / 2-C2 H5 O / H / H, 2-Butyl-4-chloro-1-(2-ethoxybenzyl)imidazole-5-acetic acid]",inhibition at 1 µM,[1]; [3],53%
CN(C)c1ccc(-c2nc(Cl)c(CC(=O)O)n2Cc2ccccc2)cc1[N+](=O)[O-],inhibition at 10 µM,[1]; [4],73%
O=C(O)Cc1c(Cl)nc(C2CCCC2)n1Cc1ccccc1,inhibition at 1 µM,[1]; [3],34%
Nc1ccc(-c2nc(Cl)c(CC(=O)O)n2Cc2ccccc2)cc1 [drawing 101],inhibition at 10 µM,[1]; [4],50%
COc1ccc(Cn2c(-c3ccc(OC)c(C)c3)nc(Cl)c2CC(=O)O)cc1C,inhibition at 1 µM,[1]; [3],54%
CC(C)(C)c1nc(Cl)c(CC(=O)O)n1Cc1ccccc1 [t-C4 H9 / H / H / H],inhibition at 1 µM,[1]; [3],10%
COc1ccc(-c2nc(Cl)c(CC(=O)O)n2Cc2ccccc2)cc1OC,inhibition at 1 µM,[1]; [3],18%
CCCCOc1ccc(Cn2c(CCCC)nc(Cl)c2CC(=O)O)cc1 [n-C4 H9 / 4-n-C4 H9 O / H / H],inhibition at 1 µM,[1]; [3],85%
COc1cc(-c2nc(Cl)c(CC(=O)O)n2Cc2ccccc2)ccc1OCc1ccccc1,inhibition at 1 µM,[1]; [3],18%
O=C(O)Cc1c(Cl)nc(-c2cc([N+](=O)[O-])c(Cl)c([N+](=O)[O-])c2)n1Cc1ccccc1 [drawing 135],inhibition in vivo at 0.1 mg/kg,[2]; [8],22.5 ± 3.2%
same,inhibition in vivo at 0.3 mg/kg,[2]; [8],18%
same,inhibition in vivo at 0.1 mg/kg,[2]; [9],55 ± 7.5%
same,inhibition in vivo at 0.3 mg/kg,[2]; [9],72%
same,inhibition in vivo at 0.1 mg/kg,[2]; [10],55 ± 7.5%
same,inhibition in vivo at 0.3 mg/kg,[2]; [10],72%
Cc1nc(Cl)c(CC(=O)O)n1Cc1ccccc1 [CH3 / H / H / H],inhibition at 10 µM,[1]; [4],38%
COc1cc(-c2nc(Cl)c(CC(=O)O)n2Cc2ccccc2)ccc1O,inhibition at 1 µM,[1]; [3],16%
O=C(O)Cc1c(Cl)nc(-c2ccccc2)n1Cc1ccccc1Br,inhibition at 1 µM,[1]; [3],60%
O=C(O)Cc1c(Cl)nc(-c2ccccc2)n1Cc1ccccc1Cl [drawing 134],inhibition in vivo at 1 mg/kg,[2]; [5],11.8 ± 1.8%
same,inhibition in vivo at 1 mg/kg,[2]; [6],36.5 ± 4.5%
same,inhibition in vivo at 1 mg/kg,[2]; [7],32.3 ± 7%
O=C(O)Cc1c(Cl)nc(-c2ccccc2)n1Cc1ccccc1Cl [drawing 92],inhibition at 10 µM,[1]; [4],90%
CCOc1ccccc1Cn1c(-c2ccccc2)nc(Cl)c1CC(=O)O,inhibition at 1 µM,[1]; [3],41%
CC(C)c1nc(Cl)c(CC(=O)O)n1Cc1ccccc1 [i-C3 H7 / H / H / H],inhibition at 1 µM,[1]; [3],41%
CCCCCc1nc(Cl)c(CC(=O)O)n1Cc1ccccc1Cl [n-C5 H11 / 2-Cl / H / H],inhibition at 0.1 µM,"[1]; A II 4×10^-9 M, 15 minutes",57%
CCCCc1nc(Cl)c(CC(=O)O)n1Cc1ccc(OC)c(C)c1 [n-C4 H9 / 3-CH3 / 4-CH3 O / H],inhibition at 1 µM,[1]; [3],99%
COc1cccc(Cn2c(-c3ccccc3)nc(Cl)c2CC(=O)O)c1 [4-chloro-1-(3-methoxybenzyl)-2-phenylimidazole-5-acetic acid],inhibition at 10 µM,[1]; [4],73%
COc1ccccc1Cn1c(-c2ccccc2)nc(Cl)c1CC(=O)O,inhibition at 1 µM,[1]; [3],42%
CCCCNc1ccc(-c2nc(Cl)c(CC(=O)O)n2Cc2ccccc2)cc1,inhibition at 10 µM,[1]; [4],63%
O=C(O)Cc1c(Cl)nc(-c2ccc3c(c2)OCO3)n1Cc1ccccc1,inhibition at 10 µM,[1]; [4],51%
"COc1ccc(Cn2c(-c3ccccc3)nc(Cl)c2CC(=O)O)cc1C [drawing 124, 4-chloro-1-(3-methyl-4-methoxybenzyl)-2-phenylimidazole-5-acetic acid]",inhibition at 1 µM,[1]; [3],80%
O=C(O)Cc1c(Cl)nc(-c2ccc(O)cc2)n1Cc1ccccc1 [drawing 103],inhibition at 10 µM,[1]; [4],32%
CCOc1ccc(Cn2c(-c3ccccc3)nc(Cl)c2CC(=O)O)cc1,inhibition at 1 µM,[1]; [3],43%
O=C(O)Cc1c(Cl)nc(-c2ccccc2)n1Cc1ccc(OCc2ccccc2)cc1 [1-(4-benzyloxybenzyl)-4-chloro-2-phenylimidazole-5-acetic acid],inhibition at 10 µM,[1]; [4],19%
CCN(CC)c1ccc(-c2nc(Cl)c(CC(=O)O)n2Cc2ccccc2)cc1Cl,inhibition at 1 µM,[1]; [3],25%
O=C(O)Cc1c(Cl)nc(-c2ccccc2)n1Cc1c(F)cccc1Cl,inhibition at 1 µM,[1]; [3],64%
COc1ccc(Cn2c(-c3ccccc3)nc(Cl)c2CC(=O)O)cc1,inhibition at 10 µM,[1]; [4],61%
O=C(O)Cc1c(Cl)nc(-c2cc([N+](=O)[O-])c(Cl)c([N+](=O)[O-])c2)n1Cc1ccccc1 [drawing 108],inhibition at 1 µM,[1],82%
O=C(O)Cc1c(Cl)nc(-c2ccccc2)n1Cc1c(Cl)cccc1Cl,inhibition at 1 µM,[1]; [3],34%
CN(C)c1ccc(-c2nc(Cl)c(CC(=O)O)n2Cc2ccccc2)cc1Cl,inhibition at 1 µM,[1]; [3],33%
"O=C(O)Cc1c(Cl)nc(-c2ccccc2)n1Cc1ccc(Cl)cc1Cl [1-(2,4-dichlorobenzyl)-4-chloro-2-phenylimidazole-5-acetic acid hydrochloride]",inhibition at 10 µM,[1]; [4],30%
Nc1ccccc1-c1nc(Cl)c(CC(=O)O)n1Cc1ccccc1,inhibition at 10 µM,[1]; [4],30%
CCc1nc(Cl)c(CC(=O)O)n1Cc1ccccc1 [C2 H5 / H / H / H],inhibition at 1 µM,[1]; [3],36%
O=C(O)Cc1c(Cl)nc(-c2cccc(O)c2)n1Cc1ccccc1,inhibition at 10 µM,[1]; [4],18%
CN(C)c1ccc(-c2nc(Cl)c(CC(=O)O)n2Cc2ccccc2)cc1Br,inhibition at 1 µM,[1]; [3],18%
O=C(O)Cc1c(Cl)nc(C2CCCCC2)n1Cc1ccccc1,inhibition at 1 µM,[1]; [3],18%
